Assay results as given in US11149316B2, “Methods for detecting inactivation of the homologous recombination pathway (BRCA1/2) in human tumors” (INSTITUT CURIE, priority 2013, dated 2021).

System: triple-negative breast tumors
Test: Cisplatin treatment of patients with triple-negative breast tumors, response by Miller-Payne score (GSE28330; Cisplatin-1 and Cisplatin-2 trials)
Assay type: in vivo, human
Experimental: Two publically available data sets from clinical trial of Cisplatin treatment of patients with triple-negative breast tumors [GSE28330 GEO database][59] were processed and the number of LST_10 Mb was calculated for each tumor with good quality of measured profile. Genomic profiles were measured by two types of chip: Affymetrix Oncoscan 70K (Dataset 2) and Oncoscan 300K (Dataset 1). Information about mutational status of BRCA1/2 was available for some tumors. Response to treatment was measured by Miller-Payne score, where 4 and 5 were considered as “positive response”, while scores <4 were considered as “no response” [59] Case by case and summary results are presented in Table 2 and Tables 3-5 (statistical comparisons were performed by the Fisher exact test).
(i) TCGA cohort: 467 tumors with high quality SNP-array profile and available normal/tumor exome sequencing results in variant call format (vcf) from the TCGA Breast Invasive carcinoma dataset were used. (ii) In-house TNBC cohort: a series of 104 TNBC enriched in BRCAi germline mutated cased. (iii) the publically available data from Cisplatin-1 and Cisplatin-2 clinical trials cohorts: 54 TNBCs with suitable quality of Oncoscan (Affymetrix) array profile were obtained from public GEO repository GSE28330 (66).
HRD is linked to the response to platinum based chemotherapy. Birkbak et al. analyzed SNParray profiles from a series of 79 patients with TNBC, including 28 patients treated by cisplatin prior to surgery (Cisplatin-1 trial) and 51 patients treated with cisplatin in addition to bevacizumab (Cisplatin-2 trial) (59).

Structure (SMILES): N.N.[Cl][Pt][Cl] [Cisplatin, cisplatin]
- Non Responders (number of tumors) (BRCA1/2 inactivated tumors): 8
- Responders (number of tumors) (BRCA1/2 inactivated tumors): 9
- Miller Payne Response Score 4 (CR), number of tumors (LST^hi tumors): 7
- Miller Payne Response Score 5 (pCR), number of tumors (LST^hi tumors): 11
- Miller Payne Response Score 4 (CR), number of tumors (LST^lo tumors): 1
- Miller Payne Response Score 5 (pCR), number of tumors (LST^lo tumors): 0
- Non Responders (Miller-Payne 0-3), number of tumors (LST_high tumors): 15
- Responders (Miller-Payne 4-5), number of tumors (LST_high tumors): 18
- Responders (Miller-Payne 4-5), number of tumors (LST_high tumors, listed as cisplatin): 18/33
- Non Responders (Miller-Payne 0-3), number of tumors (LST_low tumors): 20
- Responders (Miller-Payne 4-5), number of tumors (LST_low tumors): 1
- Responders (Miller-Payne 4-5), number of tumors (LST_low tumors, listed as cisplatin): 1/21
- Non Responders (number of tumors) (NON BRCA1/2 or NA tumors): 27
- Responders (number of tumors) (NON BRCA1/2 or NA tumors): 10
